Assay results as given in patent publication US20210260010A1, “COMPOSITIONS AND METHODS FOR THE REDUCTION OR TREATMENT OF INFLAMMATION” (AXCELLA HEALTH INC., priority 2018, published 2021).

Columns and labels:
[1] = system: IL-6; experiment: IL-6 cytokine secretion by TNFα-stimulated primary human hepatic stellate cells (ELISA); type: cell-based; conditions: for IL-6 cytokine secretion, per-cell normalized, fold change from plasma amino acid background: primary human hepatic stellate cells, two donors, TNFα 3 ng/mL, 12 hours
Description: Primary human hepatic stellate cells were obtained from Samsara Sciences and grown in Complete HSC Medium to […] confluence in T75 or T150 flasks below passage 10 were seeded into 96-well plates and incubated for 6 hours at 37° C., 5% CO2 in a humidified incubator. After 6 hours, plates were removed from the incubator washed with DPBS and pretreated (±single amino acid dropout, ±supplemental amino acid dose; see experiment for medium composition) overnight, ˜14-15 hours. After overnight pretreatment, the medium was removed from the cells, and the same pretreatment medium, now supplemented with 3 ng/mL TNFα was applied. Plates were incubated for 12 hours at 37° C., 5% CO2. After 12 hour stimulus with TNFα, supernatant was removed and frozen at −80° C. in two separate aliquots. Plates were washed and incubated with CCK-8 viability reagent (Dojindo) for 1 hour. Viability was measured on the Synergy plate reader. Immediately, the medium was removed and the plates were fixed for immunofluorescence staining.
Human CCL2/MCP1 and Human IL-6 were measured by ELISA (Human […] DuoSet ELISA, R&D Systems; Human IL-6 DuoSet ELISA, R&D Systems) at ⅕ and 1/20 dilution in 1× Reagent Diluent (Reagent Ancillary Kit 2, R&D Systems). Data were normalized to the specific per well cell density determined by Hoechst stained nuclei count.
Tables 39-42 show per-cell normalized IL-6 cytokine secretion in primary human hepatic stellate cells from two donors as a fold change from the plasma amino acid background. Statistical significance calculated by one-way ANOVA with Dunnett's multiple comparison test within each treatment group.

[2] = system: MCP1/CCL2; experiment: MCP1/CCL2 secretion by primary human hepatocytes exposed to free fatty acids and TNF-α (ELISA); type: cell-based; conditions: for MCP1 expression relative to Control- Donor 1, Mean: donor 1 hepatocytes; for MCP1 expression relative to Control- Donor 1, Mean / MCP1 expression relative to Control- Donor 2, Mean: FFA + TNF-α, baseline subtracted; for MCP1 expression relative to Control- Donor 2, Mean: donor 2 hepatocytes; for MCP1/CCL2 secretion (baseline subtracted): primary human hepatocytes from two healthy donors, FFA 250 uM + TNF-α 1 ng/ml
Description: Hepatocyte lipotoxicity appears to be a central driver of hepatic cellular injury via oxidative stress and endoplasmic reticulum (ER) stress. The ability of amino acids to influence steatosis (lipid accumulation) and inflammation in hepatocytes was assessed using human primary hepatocytes (Lonza, TRL).
Primary hepatocytes lot nos. from two healthy human donors were seeded on day 0 at density of 6e04 cells in 96 well optical microplates (Thermofisher) in hepatocyte plating media (William's E medium (Gibco) supplemented with 10% heat-inactivated FBS (Atlanta Bio), 2 mM Glutamax (Gibco) and 0.2% Primocin (InVivoGen) and incubated for 6 hours at 37° C., 5% CO2. After 6 hours, cells were washed twice and incubated overnight at 37° C., 5% CO2 with Hepatocytes defined medium (Corning) supplemented with 2 mM Glutamax (Gibco) and 1× Penicillin/Streptomycin. On day 1, cells were washed twice and incubated for 24 h in the hepatocyte culture media in the same conditions described above.
On day 2, cells were washed twice with DPBS 1× (Gibco) and maintained in amino acid-free WEM (US Biologicals) containing a defined custom amino acid concentration based on the mean physiological concentrations in blood. The values are published in the Human Metabolome Database (Wishart D S, Tzur D, Knox C, et al., HMDB: the Human Metabolome Database. Nucleic Acids Res. January 2007; 35(Database issue):D521-6. 17202168; which is hereby incorporated by reference in its entirety). This custom media is supplemented with 11 mM Glucose, 0.272 mM Sodium Pyruvate, and a dose curve of defined amino acid compositions (i.e., vehicle, LIVRQ+N-acetylcysteine, LIVRQ, RQ+N-acetylcysteine, N-acetylcysteine alone, LIV, or individually with L-Leucine, L-Isoleucine, L-Valine, L-Arginine, L-Glutamine, and L-Cysteine) at various ranges of concentrations. Cells were maintained in this defined media for 24 hours at 37° C., 5% CO2.
After pre-treatment, cells were exposed to free fatty acids (FFA) at 250 uM with a ratio of 2:1 (Oleate:Palmitate) supplemented with TNF-α (Thermofisher) at 1 ng/ml or vehicle. Cells were incubated with the FFAs mixture and the different amino acids combinations for 24 hours at 37° C., 5% CO2. After 24 hours incubation, media was removed for cytokine analysis and replaced by fresh media containing the same stimulus conditions and amino acid concentrations. Cells were incubated for an additional 48 hours for a total of 72 hours of FFA and TNFα stimulation.
Human CCL2 (MCP-1) was measured by ELISA (Human […] DuoSet ELISA, R&D Systems) at ⅕ or 1/10 dilution in 1× Reagent Diluent (Reagent Ancillary Kit 2, R&D Systems). Data were normalized to the specific per well cell density determined by nuclei count stained by Hoechst 3342 (Life technologies) in the fluorescence microscopy described below.

[3] = Conc. 66 μM (baseline comparator)
[4] = Conc. 749 μM (baseline comparator)
[5] = Conc. 234 μM (baseline comparator)

Structure (SMILES): CC(=O)N[C@@H](CS)C(=O)O [NAC, N-acetylcysteine]
- Fold Change IL-6 Secretion Normalized Per Cell ([1]; donor 1, Conc. 5 X): 0.7141
- Fold Change IL-6 Secretion Normalized Per Cell ([1]; donor 1, Conc. 10 X): 0.7354
- Fold Change IL-6 Secretion Normalized Per Cell ([1]; donor 1, Conc. 20 X): 0.6121
- Fold Change IL-6 Secretion Normalized Per Cell ([1]; donor 1, Conc. 40 X): 0.5716
- Fold Change IL-6 Secretion Normalized Per Cell ([1]; donor 2, Conc. 5 X): 0.9161
- Fold Change IL-6 Secretion Normalized Per Cell ([1]; donor 2, Conc. 10 X): 0.9180
- Fold Change IL-6 Secretion Normalized Per Cell ([1]; donor 2, Conc. 20 X): 0.8111
- Fold Change IL-6 Secretion Normalized Per Cell ([1]; donor 2, Conc. 40 X): 0.7064
- IL-6 cytokine secretion, per-cell normalized, fold change from plasma amino acid background [1]: reduced IL-6 secretion in both donors but was only statistically significant in one of two donors
- MCP1 expression relative to Control- Donor 1, Mean ([2]; Conc. 1000 μM): −0.7629
- MCP1 expression relative to Control- Donor 2, Mean ([2]; Conc. 1000 μM): 1.602
- MCP1 expression relative to Control- Donor 1, Mean ([2]; Conc. 2500 μM): −2.498
- MCP1 expression relative to Control- Donor 2, Mean ([2]; Conc. 2500 μM): −4.0591
- MCP1 expression relative to Control- Donor 1, Mean ([2]; Conc. 5000 μM): −10.8919
- MCP1 expression relative to Control- Donor 2, Mean ([2]; Conc. 5000 μM): −10.5725
- MCP1 expression relative to Control- Donor 1, Mean ([2]; Conc. 10000 μM): −17.6065
- MCP1 expression relative to Control- Donor 2, Mean ([2]; Conc. 10000 μM): −28.4419
- MCP1 expression relative to Control- Donor 1, Mean ([2]; Conc. 5 X): −0.7629
- MCP1 expression relative to Control- Donor 1, Mean ([2]; Conc. 10 X): −2.498
- MCP1 expression relative to Control- Donor 1, Mean ([2]; Conc. 20 X): −10.8919
- MCP1 expression relative to Control- Donor 1, Mean ([2]; Conc. 40 X): −17.6065
- MCP1 expression relative to Control- Donor 2, Mean ([2]; Conc. (X) 1000): 1.602
- MCP1 expression relative to Control- Donor 2, Mean ([2]; Conc. (X) 2500): −4.0591
- MCP1 expression relative to Control- Donor 2, Mean ([2]; Conc. (X) 5000): −10.5725
- MCP1 expression relative to Control- Donor 2, Mean ([2]; Conc. (X) 10000): −28.4419
- MCP1/CCL2 secretion (baseline subtracted) [2]: significantly decrease

Structure (SMILES): CC[C@H](C)[C@H](N)C(=O)O [Isoleucine, L-Isoleucine]
- Fold Change IL-6 Secretion Normalized Per Cell ([1]; donor 1, Conc. 66 μM (plasma background, reference)): 1.0000
- Fold Change IL-6 Secretion Normalized Per Cell ([1]; donor 2, Conc. 66 μM (plasma background, reference)): 1.0000
- IL-6 cytokine secretion, per-cell normalized, fold change from plasma amino acid background [1]: no significant effect
- MCP1 expression relative to Control- Donor 1, Mean [2, 3]: −1.2E−15
- MCP1 expression relative to Control- Donor 2, Mean [2, 3]: 0
- MCP1 expression relative to Control- Donor 1, Mean ([2]; Conc. 1328 μM): −0.3073
- MCP1 expression relative to Control- Donor 2, Mean ([2]; Conc. 1328 μM): 26.62
- MCP1 expression relative to Control- Donor 1, Mean ([2]; Conc. 3320 μM): −2.417
- MCP1 expression relative to Control- Donor 2, Mean ([2]; Conc. 3320 μM): −5.645
- MCP1 expression relative to Control- Donor 1, Mean ([2]; Conc. 6639 μM): −0.205
- MCP1 expression relative to Control- Donor 2, Mean ([2]; Conc. 6639 μM): 18.62
- MCP1/CCL2 secretion (baseline subtracted) [2]: did not have an effect

Structure (SMILES): NC(=O)CC[C@H](N)C(=O)O [Glutamine, L-Glutamine]
- Fold Change IL-6 Secretion Normalized Per Cell ([1]; donor 1, Conc. 562 μM (plasma background, reference)): 1.0000
- Fold Change IL-6 Secretion Normalized Per Cell ([1]; donor 2, Conc. 562 μM (plasma background, reference)): 1.0000
- Fold Change IL-6 Secretion Normalized Per Cell ([1]; donor 2, Conc. 3747 μM): 0.7100
- IL-6 cytokine secretion, per-cell normalized, fold change from plasma amino acid background [1]: significantly reduced
- MCP1 expression relative to Control- Donor 1, Mean [2, 4]: 0
- MCP1 expression relative to Control- Donor 2, Mean [2, 4]: 2.84E−14
- MCP1 expression relative to Control- Donor 1, Mean ([2]; Conc. 3747 μM): −0.8981
- MCP1 expression relative to Control- Donor 2, Mean ([2]; Conc. 3747 μM): −45.0574
- MCP1 expression relative to Control- Donor 1, Mean ([2]; Conc. 11242 μM): −9.001
- MCP1 expression relative to Control- Donor 2, Mean ([2]; Conc. 11242 μM): −90.6558
- MCP1 expression relative to Control- Donor 1, Mean ([2]; Conc. 22484 μM): −21.8392
- MCP1 expression relative to Control- Donor 2, Mean ([2]; Conc. 22484 μM): −138.873
- MCP1/CCL2 secretion (baseline subtracted) [2]: significantly decrease

Structure (SMILES): CC(C)[C@H](N)C(=O)O [Valine, L-Valine]
- Fold Change IL-6 Secretion Normalized Per Cell ([1]; donor 1, Conc. 234 μM (plasma background, reference)): 1.0000
- Fold Change IL-6 Secretion Normalized Per Cell ([1]; donor 2, Conc. 234 μM (plasma background, reference)): 1.0000
- IL-6 cytokine secretion, per-cell normalized, fold change from plasma amino acid background [1]: no significant effect
- MCP1 expression relative to Control- Donor 1, Mean [2, 5]: −2.4E−15
- MCP1 expression relative to Control- Donor 2, Mean [2, 5]: −1.4E−14
- MCP1 expression relative to Control- Donor 1, Mean ([2]; Conc. 4684 μM): 23.6867
- MCP1 expression relative to Control- Donor 2, Mean ([2]; Conc. 4684 μM): 10.79
- MCP1 expression relative to Control- Donor 1, Mean ([2]; Conc. 11710 μM): 77.73
- MCP1 expression relative to Control- Donor 2, Mean ([2]; Conc. 11710 μM): 38.25
- MCP1 expression relative to Control- Donor 1, Mean ([2]; Conc. 23420 μM): 14.17
- MCP1 expression relative to Control- Donor 2, Mean ([2]; Conc. 23420 μM): −30.7921
- MCP1/CCL2 secretion (baseline subtracted) [2]: did not have an effect
